Results reported in patent US9279813B2, “Ex vivo flow cytometry method and device” (Purdue Research Foundation, priority 2006, dated 2016).

Target: T1, cell surface folate receptors on folate receptor positive M109 cells (Mus musculus, UniProt P35846)
T1 construct: cell surface folate receptors on folate receptor positive M109 cells in culture; endogenous in cells; host or cells: M109 cells
Experiment: Fluorescence measurement of binding to cell surface folate receptors on M109 cells in culture
Assay type: cell-based
Description: TEXAS RED C2-maleimide (Molecular Probes, Eugene, Oreg.) was dissolved in dimethyl sulfoxide (DMSO) (1 mg in 200 μl DMSO). A 1.4 molar equivalent (1 mg) of Folate-Cys was added to the solution and mixed for 4 hours at room temperature. Folate-Cys-TEXAS RED (Folate-TEXAS RED) was purified by reverse-phase HPLC on a C18 column at a flow rate of 1 ml/min. The mobile phase, consisting of 10 mM NH4HCO3 buffer, pH 7.0 (eluent A) and acetonitrile (eluent B), was maintained at a 99:1 A:B ratio for the first five minutes and then changed to 70:30 A:B in a linear gradient over the next 30 minutes followed by a 1:99 A:B linear gradient over the last 15 minutes. Folate-Cys-TEXAS RED eluted as two isomer peaks at 44.5 and 45.8 minutes. The product was confirmed by mass spectroscopy and the biologic activity was confirmed by fluorescence measurement of its binding to cell surface folate receptors on folate receptor positive M109 cells in culture.
ALEXAFLUOR 488 C5-maleimide (Molecular Probes, Eugene, Oreg.) was dissolved in dimethyl sulfoxide (DMSO) (0.5 mg in 50 μl DMSO). A 1.5 molar equivalent (0.57 mg) of Folate-Cys was added to the solution and mixed for 4 hours at room temperature. […] The product was confirmed by mass spectroscopy and the biologic activity was confirmed by fluorescence measurement of its binding to cell surface folate receptors on folate receptor positive M109 cells in culture.

T1 sequence (P35846 25-232): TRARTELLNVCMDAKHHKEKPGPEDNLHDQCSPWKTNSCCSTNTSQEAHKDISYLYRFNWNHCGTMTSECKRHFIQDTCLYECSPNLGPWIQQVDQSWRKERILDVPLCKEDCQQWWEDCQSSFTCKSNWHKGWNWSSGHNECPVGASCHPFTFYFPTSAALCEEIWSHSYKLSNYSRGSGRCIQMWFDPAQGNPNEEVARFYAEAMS

Row | biologic activity: binding to cell surface folate receptors | Compound
1 | confirmed | N=c1ccc2c(-c3ccc(C(=O)NCCCCCN4C(=O)CC(SCC(NC(=O)CCC(NC(=O)c5ccc(NCc6cnc7nc(N)[nH]c(=O)c7n6)cc5)C(=O)O)C(=O)O)C4=O)cc3C(=O)O)c3ccc(N)c(S(=O)(=O)O)c3oc-2c1S(=O)(=O)O (centres unmarked) [Folate-Cys-ALEXAFLUOR 488]
2 | confirmed | Nc1nc2ncc(CNc3ccc(C(=O)NC(CCC(=O)NC(CSC4CC(=O)N(CCNS(=O)(=O)c5ccc(C6=c7cc8c9c(c7Oc7c6cc6c%10c7CCCN%10CCC6)CCC[N+]=9CCC8)c(S(=O)(=O)O)c5)C4=O)C(=O)O)C(=O)O)cc3)nc2c(=O)[nH]1 (centres unmarked) [Folate-Cys-TEXAS RED]
